Measured values taken from PubChem BioAssay AID248 (DTP/NCI, 2004).
Values joined by “and” are separate entries in the source; they are usually repeats but may differ in a detail not shown here. Equal entries are not always repeated. Toxic doses and inconclusive results are not listed. Cut-off read from the data, not from the text of the source: active = T/C of 150% or more; inactive = T/C below 125%.

Test system: L1210 leukemia ip in BDF1 mice, survival T/C
Experiment: NCI In Vivo Anticancer Drug Screen. Data for tumor model L1210 Leukemia (intraperitoneal) in B6D2F1 (BDF1) mice
Conditions: endpoint: mean survival time, higher = longer survival
Procedure, shortened: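 Read-out is survival time, reported as the treated-group measurement over the vehicle-control measurement.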

[1] = dose: 100.0 mg/kg/injection, schedule: Q04DX003 (ip), vehicle: saline with Tween-80
[2] = dose: 50.0 mg/kg/injection, schedule: Q01DX009 (ip), vehicle: saline
[3] = dose: 100.0 mg/kg/injection, schedule: Q01DX009 (ip), vehicle: saline
[4] = dose: 100.0 mg/kg/injection, schedule: Q04DX003 (ip), vehicle: saline
[5] = dose: 200.0 mg/kg/injection, schedule: Q01DX009 (ip), vehicle: saline
[6] = dose: 200.0 mg/kg/injection, schedule: Q04DX003 (ip), vehicle: saline
[7] = dose: 400.0 mg/kg/injection, schedule: Q04DX003 (ip), vehicle: saline
[8] = dose: 100.0 mg/kg/injection, schedule: Q01DX001 (ip), vehicle: saline
[9] = dose: 200.0 mg/kg/injection, schedule: Q01DX001 (ip), vehicle: saline
[10] = dose: 100.0 mg/kg/injection, schedule: Q04DX003 (ip), vehicle: Klucel (hydroxypropylcellulose) (HPC)
[11] = dose: 200.0 mg/kg/injection, schedule: Q04DX003 (ip), vehicle: Klucel (hydroxypropylcellulose) (HPC)
[12] = dose: 400.0 mg/kg/injection, schedule: Q04DX003 (ip), vehicle: Klucel (hydroxypropylcellulose) (HPC)
[13] = dose: 200.0 mg/kg/injection, schedule: Q04DX003 (ip), vehicle: saline with Tween-80
[14] = dose: 400.0 mg/kg/injection, schedule: Q04DX003 (ip), vehicle: saline with Tween-80

Measured: T/C

O=C(/C=C/c1cccc([N+](=O)[O-])c1)CCl
inactive: dose: 25.0 mg/kg/injection, schedule: Q04DX003 (ip), vehicle: saline with Tween-80 110 % of control | dose: 50.0 mg/kg/injection, schedule: Q04DX003 (ip), vehicle: saline with Tween-80 105 % of control | [1] 103 % of control and 104 % of control

Cc1cc(O)c2c(c1O)C(=O)c1ccccc1C2=O
inactive: [2] 95 % of control | [3] 95 % of control | [4] 98 % of control | [5] 95 % of control | [6] 96 % of control | dose: 400.0 mg/kg/injection, schedule: Q01DX009 (ip), vehicle: saline 104 % of control | [7] 93 % of control

COC(=O)c1ccc(NCC(=N)N)cc1
inactive: [8] 95 % of control | [9] 107 % of control

CCCCCCCCCCCCCCCCSc1ccc(C)cc1
inactive: dose: 100.0 mg/kg/injection, schedule: Q01DX009 (ip), vehicle: other 88 % of control | [10] 89 % of control | dose: 200.0 mg/kg/injection, schedule: Q01DX009 (ip), vehicle: other 88 % of control | [11] 93 % of control | dose: 400.0 mg/kg/injection, schedule: Q01DX009 (ip), vehicle: other 112 % of control | [12] 96 % of control

Cc1ccc(S(=O)(=O)N(C)CCCCC(=O)O)cc1
inactive: dose: 100.0 mg/kg/injection, schedule: Q01DX009 (ip), vehicle: saline with Tween-80 90 % of control | dose: 200.0 mg/kg/injection, schedule: Q01DX009 (ip), vehicle: saline with Tween-80 104 % of control | dose: 400.0 mg/kg/injection, schedule: Q01DX009 (ip), vehicle: saline with Tween-80 93 % of control

C[C@]12CCC(=O)C=C1CC[C@@H]1[C@@H]2[C@@H](O)C[C@@]2(C)[C@H]1CC[C@]2(O)C(=O)CF
inactive: dose: 50.0 mg/kg/injection, schedule: Q01DX Z (sc), vehicle: steriod suspending solution 106 % of control | dose: 250.0 mg/kg/injection, schedule: Q01DX Z (sc), vehicle: steriod suspending solution 104 % of control | dose: 500.0 mg/kg/injection, schedule: Q01DX Z (sc), vehicle: steriod suspending solution 107 % of control

COC(C(=O)O)c1ccc(Br)cc1 (configuration not stated)
inactive: dose: 75.0 mg/kg/injection, schedule: Q01DX001 (ip), vehicle: acetone 95 % of control | dose: 150.0 mg/kg/injection, schedule: Q01DX001 (ip), vehicle: acetone 94 % of control

C=CN1CCCC1=O
inactive: dose: 100.0 mg/kg/injection, schedule: Q01DX001 (ip), vehicle: acetone 95 % of control | [8] 97 % of control | dose: 100.0 mg/kg/injection, schedule: Q04DX002 (ip), vehicle: saline 103 % of control | [1] 100 % of control | dose: 200.0 mg/kg/injection, schedule: Q01DX001 (ip), vehicle: acetone 95 % of control | [9] 92 % of control | dose: 200.0 mg/kg/injection, schedule: Q04DX002 (ip), vehicle: saline 103 % of control | [13] 92 % of control | dose: 400.0 mg/kg/injection, schedule: Q01DX001 (ip), vehicle: acetone 93 % of control | dose: 400.0 mg/kg/injection, schedule: Q04DX002 (ip), vehicle: saline 103 % of control | [14] 92 % of control | dose: 600.0 mg/kg/injection, schedule: Q01DX001 (ip), vehicle: saline 100 % of control | dose: 800.0 mg/kg/injection, schedule: Q01DX001 (ip), vehicle: saline 100 % of control | dose: 1000.0 mg/kg/injection, schedule: Q01DX001 (ip), vehicle: saline 106 % of control | dose: 1200.0 mg/kg/injection, schedule: Q01DX001 (ip), vehicle: saline 108 % of control | dose: 1.9 grams/kg/injection, schedule: Q01DX001 (iv), vehicle: saline 98 % of control | dose: 1.9 grams/kg/injection, schedule: Q01DX005 (iv), vehicle: saline 97 % of control | dose: 1.9 grams/kg/injection, schedule: Q04DX003 (iv), vehicle: saline 97 % of control | dose: 3.8 grams/kg/injection, schedule: Q01DX001 (ip), vehicle: saline 90 % of control | dose: 3.8 grams/kg/injection, schedule: Q01DX001 (iv), vehicle: saline 97 % of control | dose: 3.8 grams/kg/injection, schedule: Q01DX005 (ip), vehicle: saline 100 % of control | dose: 3.8 grams/kg/injection, schedule: Q01DX005 (iv), vehicle: saline 96 % of control | dose: 3.8 grams/kg/injection, schedule: Q01DX009 (ip), vehicle: saline 91 % of control | dose: 3.8 grams/kg/injection, schedule: Q03HX008 (ip), vehicle: saline 97 % of control | dose: 3.8 grams/kg/injection, schedule: Q03HX016 (ip), vehicle: saline 98 % of control | dose: 3.8 grams/kg/injection, schedule: Q03HX024 (ip), vehicle: saline 101 % of control | dose: 3.8 grams/kg/injection, schedule: Q04DX003 (ip), vehicle: saline 101 % of control | dose: 3.8 grams/kg/injection, schedule: Q04DX003 (iv), vehicle: saline 94 % of control | dose: 3.8 grams/kg/injection, schedule: Q08DX002 (ip), vehicle: saline 97 % of control | dose: 7.5 grams/kg/injection, schedule: Q01DX001 (ip), vehicle: saline 93 % of control | dose: 7.5 grams/kg/injection, schedule: Q01DX001 (iv), vehicle: saline 97 % of control | dose: 7.5 grams/kg/injection, schedule: Q01DX005 (ip), vehicle: saline 103 % of control | dose: 7.5 grams/kg/injection, schedule: Q01DX005 (iv), vehicle: saline 93 % of control | dose: 7.5 grams/kg/injection, schedule: Q01DX009 (ip), vehicle: saline 97 % of control | dose: 7.5 grams/kg/injection, schedule: Q03HX008 (ip), vehicle: saline 96 % of control | dose: 7.5 grams/kg/injection, schedule: Q03HX016 (ip), vehicle: saline 95 % of control | dose: 7.5 grams/kg/injection, schedule: Q03HX024 (ip), vehicle: saline 103 % of control | dose: 7.5 grams/kg/injection, schedule: Q04DX003 (ip), vehicle: saline 98 % of control | dose: 7.5 grams/kg/injection, schedule: Q04DX003 (iv), vehicle: saline 92 % of control | dose: 7.5 grams/kg/injection, schedule: Q08DX002 (ip), vehicle: saline 98 % of control | dose: 15.0 grams/kg/injection, schedule: Q01DX001 (ip), vehicle: saline 88 % of control | dose: 15.0 grams/kg/injection, schedule: Q01DX005 (ip), vehicle: saline 102 % of control | dose: 15.0 grams/kg/injection, schedule: Q01DX009 (ip), vehicle: saline 96 % of control | dose: 15.0 grams/kg/injection, schedule: Q04DX003 (ip), vehicle: saline 95 % of control | dose: 15.0 grams/kg/injection, schedule: Q08DX002 (ip), vehicle: saline 94 % of control

O=[N+]([O-])c1cccc(S(=O)(=O)O)c1
inactive: [2] 93 % of control | dose: 50.0 mg/kg/injection, schedule: Q04DX003 (ip), vehicle: saline 97 % of control | [3] 87 % of control | [4] 96 % of control and 100 % of control | [5] 93 % of control | [6] 100 % of control and 102 % of control | [7] 90 % of control

CCN(C)CCC(C=NCC(CCN(C)CC)(CCN(C)CC)c1cccc2ccccc12)(CCN(C)CC)c1cccc2ccccc12
inactive: dose: 6.25 mg/kg/injection, schedule: Q01DX009 (ip), vehicle: saline 103 % of control | dose: 12.5 mg/kg/injection, schedule: Q01DX009 (ip), vehicle: saline 96 % of control | dose: 12.5 mg/kg/injection, schedule: Q04DX003 (ip), vehicle: saline 101 % of control | dose: 25.0 mg/kg/injection, schedule: Q01DX009 (ip), vehicle: saline 111 % of control | dose: 25.0 mg/kg/injection, schedule: Q04DX003 (ip), vehicle: saline 106 % of control

CCCCOP(=O)(OCCCC)C(c1ccccc1)(c1ccccc1)c1ccccc1
inactive: [10] 91 % of control | [11] 94 % of control | [12] 96 % of control

CC1COCCN1 (configuration not stated)
inactive: dose: 50.0 mg/kg/injection, schedule: Q01DX001 (ip), vehicle: saline 91 % of control | [8] 97 % of control | [9] 100 % of control

NC(=O)NC1CCCCCCC1
inactive: [1] 98 % of control | [13] 89 % of control | [14] 95 % of control
